# According to patent US20240391945A1, “NUCLEIC ACID SYNTHESIS METHOD USING SEGMENT-TYPE AMIDITE” (NITTO DENKO CORPORATION, priority 2020, published 2024):
# Experiment: pKa values in water of the activators
# Format: physicochemical
# Settings: for pKa: read-out: pKa in H2O
Compound,pKa,pKa in H2O
"Cn1nnnc1S [Activator 1-Me-MCT, 5-mercapto-1-methyltetrazole]",3.86,
"Sc1nnnn1-c1ccccc1 [Activator 1-Ph-MCT, 5-mercapto-1-phenyltetrazole]",3.65,
saccharin 1-methylimidazole [SMI],,7

# Further lines, with some results ahead:
pKa,Compound,pKa in H2O
4.1,"c1ccc(CSc2nnn[nH]2)cc1 [BTT, 5-benzylthiotetrazole]",
4.3,"CCSc1nnn[nH]1 [ETT, 5-ethylthio-1H-tetrazole]",
